pIC50: −log10 of the molar value.
What was measured:
XIAP BIR3 = biological target: T1, XIAP BIR3 (Homo sapiens, UniProt P98170); experiment: XIAP BIR3 binding assay (DELFIA), displacement of SMAC peptide; details: GST-fusion BIR3 domain (aa 241 to 356) 10 nM, SMAC peptide 10 nM; activity of the (S)-isomers
T1 construct: covering amino acids 241 to 356; XIAP BIR3; made in house; host or cells: E. coli
Summary of the method: (§1)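 Each BIR3 domain (10 nM) incubated with biotinylated N-terminal SMAC peptide (10 nM) and compound for 1 h at room temp in Tris/NaCl buffer with BSA, DTT and Triton X-100. Captured on streptavidin plates; bound BIR3 detected by Eu-labelled anti-GST time-resolved fluorescence, giving IC50 values.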

cIAP1 BIR3 = biological target: T2, cIAP1 BIR3 (Homo sapiens, UniProt Q13490); experiment: cIAP1 BIR3 binding assay (DELFIA), displacement of SMAC peptide; details: GST-fusion BIR3 domain (aa 256 to 363) 10 nM, SMAC peptide 10 nM; activity of the (S)-isomers
T2 construct: covering amino acids 256 to 363; cIAP1 BIR3; made in house; host or cells: E. coli
Summary of the method: as §1

T2 sequence (Q13490 256-363): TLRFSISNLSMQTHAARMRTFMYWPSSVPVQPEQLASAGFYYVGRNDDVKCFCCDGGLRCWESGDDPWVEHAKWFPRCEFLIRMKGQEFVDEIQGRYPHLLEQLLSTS
T1 sequence (P98170 241-356): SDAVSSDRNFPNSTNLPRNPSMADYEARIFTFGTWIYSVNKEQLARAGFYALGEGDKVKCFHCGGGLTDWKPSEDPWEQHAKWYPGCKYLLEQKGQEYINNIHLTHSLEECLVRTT

| Structure (SMILES) | pIC50 (XIAP BIR3) | pIC50 (cIAP1 BIR3) |
| --- | --- | --- |
| CNC(C)C(=O)Nc1ccc(-c2cncc(Cl)c2)c(C#Cc2ccccc2)n1 (centres unmarked) [Example 122, N-[5-(5-chloropyridin-3-yl)-6-(2-phenylethynyl)pyridin-2-yl]-2-(methylamino)propanamide] | 6.83 | 7.64 |
| CNC(C)C(=O)Nc1cc(C(F)(F)F)cc(C#Cc2ccccc2)n1 (centres unmarked) [Example 198, 2-(methylamino)-N-[6-(2-phenylethynyl)-4-(trifluoromethyl)pyridin-2-yl]propanamide] | 4.98 | 5.31 |
| CNC(C)C(=O)Nc1ccc(-c2c(C)nc3ccccn23)c(C#Cc2ccc(C#N)c(Cl)c2)n1 (centres unmarked) [Example 41, N-[6-[2-(3-chloro-4-cyanophenyl)ethynyl]-5-(2-methylimidazo[1,2-a]pyridin-3-yl)pyridin-2-yl]-2-(methyl-amino)propanamide] | 6.91 | 9.00 |
| CNC(C)C(=O)Nc1ccc(-c2cnc(C(=O)OC)nc2)c(C#Cc2ccccc2)n1 (centres unmarked) [Example 194, methyl 5-[6-[[2-(methylamino)-propanoyl]amino]-2-(2-phenyl-ethynyl)pyridin-3-yl]pyrimidine-2-carboxylate] | 6.99 | 7.64 |
| CC(N)C(=O)Nc1ccc(-c2cccc(C#N)c2)c(C#Cc2ccccc2)n1 (centres unmarked) [Example 113, 2-amino-N-[5-(3-cyanophenyl)-6-(2-phenylethynyl)pyridin-2-yl]-propanamide] | 6.64 | 7.17 |
| CNC(C)C(=O)Nc1ccc(-c2cc(F)cc(C(=O)OC)c2)c(C#Cc2ccccc2)n1 (centres unmarked) [Example 132, methyl 3-fluoro-5-[6-[[2-(methyl-amino)propanoyl]amino]-2-(2-phenylethynyl)pyridin-3-yl]-benzoate] | 6.49 | 7.01 |
| Cc1noc(C)c1-c1ccc(NC(=O)C(C)N)nc1C#Cc1ccccc1 (centres unmarked) [Example 165, 2-amino-N-[5-(3,5-dimethyl-1,2-oxazol-4-yl)-6-(2-phenylethynyl)-pyridin-2-yl]propanamide] | 7.17 | 9.00 |
| CNC(C)C(=O)Nc1ccc(-c2c(C)nc3ccccn23)c(C#Cc2ccc3nn(C)cc3c2)n1 (centres unmarked) [Example 72, 2-(methylamino)-N-[5-(2-methylimidazo[1,2-a]pyridin-3-yl)-6-[2-(2-methylindazol-5-yl)-ethynyl]pyridin-2-yl]propan-amide] | 6.84 | 9.00 |
| COC(=O)c1cccc(C#Cc2cccc(NC(=O)C(C)N)n2)c1 (centres unmarked) [Example 223, methyl 3-[2-[6-[[2-aminopropanoyl]amino]pyridin-2-yl]ethynyl]benzoate] | 5.61 | 5.58 |
| CNC(C)C(=O)Nc1ccc(-c2c(-c3ccncc3)nc3cc(C)ccn23)c(C#Cc2ccc3nc(C)ccc3c2)n1 (centres unmarked) [Example 64, 2-(methylamino)-N-[5-(7-methyl-2-pyridin-4-ylimidazo[1,2-a]pyridin-3-yl)-6-[2-(2-methylquinolin-6-yl)-ethynyl]pyridin-2-yl]propan-amide] | 6.82 | 9.00 |
| CNC(C)C(=O)Nc1ccc(-c2nnc(Cl)c3ccccc23)c(C#Cc2ccccc2)n1 (centres unmarked) [Example 184, N-[5-(4-chlorophthalazin-1-yl)-6-(2-phenylethynyl)pyridin-2-yl]-2-(methylamino)propanamide] | 6.86 | 7.77 |
| CNC(C)C(=O)Nc1ccc(-c2c(C)nc3ccccn23)c(C#Cc2cccc3ncccc23)n1 (centres unmarked) [Example 89, 2-(methylamino)-N-[5-(2-methylimidazo[1,2-a]pyridin-3-yl)-6-(2-quinolin-5-ylethynyl)-pyridin-2-yl]propanamide] | 7.04 | 8.70 |

More lines, in order of rising pIC50 (XIAP BIR3), values ahead:

| pIC50 (XIAP BIR3) | pIC50 (cIAP1 BIR3) | Structure (SMILES) |
| --- | --- | --- |
| 5.01 | 6.01 | CC(N)C(=O)Nc1cccc(C#Cc2cccnc2)n1 (centres unmarked) [Example 215, 2-amino-N-[6-(2-pyridin-3-ylethynyl)pyridin-2-yl]propanamide] |
| 5.44 | 6.06 | CC(N)C(=O)Nc1cc2ccccc2c(C#Cc2ccccn2)n1 (centres unmarked) [Example 206, 2-amino-N-[1-(2-pyridin-2-ylethynyl)isoquinolin-3-yl]-propanamide] |
| 5.49 | 6.76 | CNC(C)C(=O)Nc1ccc(-c2cccc3ccccc23)c(C#Cc2ccccc2)n1 (centres unmarked) [Example 130, 2-(methylamino)-N-[5-naphthalen-1-yl-6-(2-phenyl-ethynyl)pyridin-2-yl]propanamide] |
| 5.79 | 6.76 | Cc1ccccc1-c1ccc(NC(=O)C(C)N)nc1C#Cc1ccccc1 (centres unmarked) [Example 108, 2-amino-N-[5-(2-methylphenyl)-6-(2-phenylethynyl)pyridin-2-yl]-propanamide] |
| 6.15 | 6.37 | CC(N)C(=O)Nc1cc2ccccc2c(C#Cc2ccccc2)n1 (centres unmarked) [Example 204, 2-amino-N-[1-(2-phenyl-ethynyl)isoquinolin-3-yl]-propanamide] |
| 6.34 | 6.49 | CC(N)C(=O)Nc1ccc(-c2cncc(Oc3ccccc3)c2)c(C#Cc2ccccc2)n1 (centres unmarked) [Example 100, 2-amino-N-[5-(5-phenoxypyridin-3-yl)-6-(2-phenylethynyl)pyridin-2-yl]propanamide] |
| 6.47 | 7.04 | CNC(C)C(=O)Nc1ccc(-c2ccc3c(c2)C(=O)c2ccccc2-3)c(C#Cc2ccccc2)n1 (centres unmarked) [Example 177, 2-(methylamino)-N-[5-(9-oxofluoren-2-yl)-6-(2-phenyl-ethynyl)pyridin-2-yl]propanamide] |
| 6.73 | 8.30 | CNC(C)C(=O)Nc1ccc(-c2c(C)nc3ccccn23)c(C#Cc2nn(C)c3ccccc23)n1 (centres unmarked) [Example 61, 2-(methylamino)-N-[5-(2-methylimidazo[1,2-a]pyridin-3-yl)-6-[2-(1-methylindazol-3-yl)-ethynyl]pyridin-2-yl]propan-amide] |
| 6.84 | 9.00 | CNC(C)C(=O)Nc1ccc(-c2c(C)nc3ccccn23)c(C#Cc2ccc3occc3c2)n1 (centres unmarked) [Example 52, N-[6-[2-(1-benzofuran-5-yl)-ethynyl)-5-(2-methyl-imidazo[1,2-a]pyridin-3-yl)-pyridin-2-yl]-2-(methylamino)-propanamide] |
| 6.89 | 7.68 | CNC(C)C(=O)Nc1ccc(-c2cncc(C)c2)c(C#Cc2ccccc2)n1 (centres unmarked) [Example 127, 2-(methylamino)-N-[5-(5-methylpyridin-3-yl)-6-(2-phenyl-ethynyl)pyridin-2-yl]propanamide] |
| 7.01 | 7.51 | CNC(C)C(=O)Nc1ccc(-c2cncc(OC)c2)c(C#Cc2ccccc2)n1 (centres unmarked) [Example 121, N-[5-(5-methoxypyridin-3-yl)-6-(2-phenylethynyl)pyridin-2-yl]-2-(methylamino)propanamide] |
| 7.08 | 9.00 | CNC(C)C(=O)Nc1ccc(-c2c(-c3ccncc3)nc3cc(C)ccn23)c(C#Cc2ccc(OC)c3ncccc23)n1 (centres unmarked) [Example 96, N-[6-[2-(8-methoxyquinolin-5-yl)ethynyl]-5-(7-methyl-2-pyridin-4-ylimidazo[1,2-a]-pyridin-3-yl)pyridin-2-yl]-2-(methylamino)propanamide] |
| 7.30 | 7.64 | CNC(C)C(=O)Nc1ccc(-c2cc(C(=O)OC)cc(C(=O)OC)c2)c(C#Cc2ccccc2)n1 (centres unmarked) [Example 176, dimethyl 5-[6-[[2-(methylamino)-propanoyl]amino]-2-(2-phenyl-ethynyl)pyridin-3-yl]benzene-1,3-dicarboxylate] |

Source: US8859541B2, “6-alkynylpyridines” (Boehringer Ingelheim International GmbH, priority 2012, dated 2014)
